Patent US20160002217A1, “FUNGICIDAL 3--OXADIAZOLONE DERIVATIVES” (BAYER CROPSCIENCE AG, priority 2013, published 2016)
Marks after values point to notes of the source that are not given here.

Assays:
[1] = pH 2.7
Phytophthora infestans = assay type: in vivo; conditions: tomato plants, preventive spray, 500 ppm of active ingredient, evaluated 5 days after inoculation

With `CC(Oc1ccccc1)C(=O)Nc1nc(CON=C(c2ccsc2)c2noc(=O)n2C)cs1` (racemic) [Example 43] the LogP [1] was 3.37^[a] and the “% efficacy” value (Phytophthora infestans) was 98%.

With `Cn1c(C(=NOCc2cccc(NC(=O)OC(C)(C)C)n2)c2ncccn2)noc1=O` (single isomer, unassigned) [Example 27] the LogP [1] was 2.66^[a][b].

With `Cn1c(C(=NOCc2cccc(NC(=O)OC(C)(C)C)n2)c2ncccn2)noc1=O` (single isomer, unassigned) [Example 28] the LogP [1] was 2.56^[a][c].

In the case of `CCn1oc(=O)nc1C(=NOCc1cccc(N)n1)c1ccccn1` [Example 1], the LogP [1] is reported as 0.69^[a].

For `CCCCCOC(=O)Nc1cccc(CON=C(c2ccccn2)c2nc(=O)on2CC)n1` [Example 2], the LogP [1] was 3.42^[a].

For `CCCCOC(=O)Nc1cccc(CON=C(c2ccccn2)c2noc(=O)n2C)n1` [Example 3], the LogP [1] was 3.25^[a] and the “% efficacy” value (Phytophthora infestans) was 100%.

With `CCCCCC(=O)Nc1cccc(CON=C(c2ccccn2)c2noc(=O)n2C)n1` [Example 4] the LogP [1] was 3.13^[a] and the “% efficacy” value (Phytophthora infestans) was 88%.

With `CCCCOC(=O)Nc1cccc(CON=C(c2ccccn2)c2nc(=O)on2CC)n1` [Example 5] the LogP [1] was 2.96^[a].

In the case of `CCCCC(=O)Nc1cccc(CON=C(c2ccccn2)c2nc(=O)on2CC)n1` [Example 6], the LogP [1] is reported as 2.49^[a].

For `C#CCCOC(=O)Nc1cccc(CON=C(c2ccccn2)c2noc(=O)n2C)n1` [Example 7], the LogP [1] was 2.56^[a] and the “% efficacy” value (Phytophthora infestans) was 85%.

With `CCn1oc(=O)nc1C(=NOCc1cccc(NC(=O)OC(C)(C)C)n1)c1ccccn1` [Example 8] the LogP [1] was 2.84^[a].

With `CCCCC(=O)Nc1cccc(CON=C(c2ccccn2)c2nc(=O)on2C)n1` [Example 10] the LogP [1] was 2.25^[a].

For `CCCCCC(=O)Nc1cccc(CON=C(c2ccccn2)c2nc(=O)on2CC)n1` [Example 11], the LogP [1] was 2.84^[a].

With `CCCCCOC(=O)Nc1cccc(CON=C(c2ccccn2)c2noc(=O)n2C)n1` [Example 12] the LogP [1] was 3.67^[a] and the “% efficacy” value (Phytophthora infestans) was 85%.

In the case of `Cn1c(C(=NOCc2cccc(N)n2)c2ccccn2)noc1=O` [Example 14], the LogP [1] is reported as 0.85^[a].

With `CCCCCOC(=O)Nc1cccc(CON=C(c2ccccn2)c2nc(=O)on2C)n1` [Example 15] the LogP [1] was 3.09^[a] and the “% efficacy” value (Phytophthora infestans) was 88%.

In the case of `CCCCCC(=O)Nc1cccc(CON=C(c2ccccn2)c2nc(=O)on2C)n1` [Example 18], the LogP [1] is reported as 2.61^[a].

In the case of `CC(C)(C)OC(=O)Nc1nc(CON=C(c2ccsc2)c2noc(=O)[nH]2)cs1` [Example 20], the LogP [1] is reported as 3.20^[a].

In the case of `CCCCOC(=O)Nc1cccc(CON=C(c2ccccn2)c2nc(=O)on2C)n1` [Example 21], the LogP [1] is reported as 2.70^[a].

For `CC(C)(C)OC(=O)Nc1nc(CON=C(c2noc(=O)[nH]2)c2cccs2)cs1` [Example 24], the LogP [1] was 3.26^[a].

With `Cn1oc(=O)nc1C(=NOCc1cccc(NC(=O)OC(C)(C)C)n1)c1ncccn1` [Example 25] the LogP [1] was 2.14^[a].

For `CC(C)(C)OC(=O)Nc1cccc(CON=C(c2ncccn2)c2noc(=O)[nH]2)n1` [Example 26], the LogP [1] was 2.27^[a].

With `Cn1oc(=O)nc1C(=NOCc1cccc(N)n1)c1ncccn1` [Example 29] the LogP [1] was 0.92^[a].

For `Cn1c(C(=NOCc2cccc(N)n2)c2ncccn2)noc1=O` [Example 30], the LogP [1] was 0.39^[a].

With `Cn1oc(=O)nc1C(=NOCc1cccc(NC(=O)OC(C)(C)C)n1)c1cccnc1` [Example 31] the LogP [1] was 2.28 + 2.37^[a].

For `Cn1oc(=O)nc1C(=NOCc1cccc(N)n1)c1cccnc1` [Example 34], the LogP [1] was 1.19^[a].

In the case of `Cn1c(C(=NOCc2cccc(N)n2)c2cccnc2)noc1=O` [Example 35], the LogP [1] is reported as 0.52 ± 0.46^[a].

In the case of `CC(C)(C)OC(=O)Nc1cccc(CON=C(c2ccncc2)c2noc(=O)[nH]2)n1` [Example 36], the LogP [1] is reported as 2.37^[a].

In the case of `Cn1oc(=O)nc1C(=NOCc1cccc(NC(=O)OC(C)(C)C)n1)c1ccncc1` [Example 37], the LogP [1] is reported as 2.21^[a] and the “% efficacy” value (Phytophthora infestans) is reported as 80%.

For `Cn1c(C(=NOCc2cccc(NC(=O)OC(C)(C)C)n2)c2ccncc2)noc1=O` [Example 38], the LogP [1] was 2.75^[a] and the “% efficacy” value (Phytophthora infestans) was 100%.

For `Cn1oc(=O)nc1C(=NOCc1cccc(N)n1)c1ccncc1` [Example 39], the LogP [1] was 1.20^[c].

For `Cn1c(C(=NOCc2cccc(N)n2)c2ccncc2)noc1=O` [Example 40], the LogP [1] was 0.41^[a].

In the case of `CN(C(=O)OC(C)(C)C)c1nc(CON=C(c2cccs2)c2noc(=O)n2C)cs1` [Example 41], the LogP [1] is reported as 4.24^[a].

For `Cn1c(C(=NOCc2csc(NC(=O)OC(C)(C)C)n2)c2cccs2)noc1=O` [Example 42], the LogP [1] was 3.35^[a] and the “% efficacy” value (Phytophthora infestans) was 93%.

In the case of `CCCCOC(=O)Nc1cccc(CON=C(c2ncccn2)c2nc(=O)on2C)n1` [Example 46], the LogP [1] is reported as 2.23^[a].

In the case of `CCCCCC(=O)Nc1cccc(CON=C(c2cccnc2)c2noc(=O)n2C)n1` [Example 47], the LogP [1] is reported as 2.86^[a].

For `CCCCCC(=O)Nc1cccc(CON=C(c2ncccn2)c2nc(=O)on2C)n1` [Example 48], the LogP [1] was 2.18^[a].

For `CCCCCOC(=O)Nc1cccc(CON=C(c2cccnc2)c2noc(=O)n2C)n1` [Example 49], the LogP [1] was 3.37^[a] and the “% efficacy” value (Phytophthora infestans) was 99%.

With `CCCCOC(=O)Nc1cccc(CON=C(c2cccnc2)c2noc(=O)n2C)n1` [Example 50] the LogP [1] was 2.98^[a] and the “% efficacy” value (Phytophthora infestans) was 100%.

With `C#CCCOC(=O)Nc1cccc(CON=C(c2cccnc2)c2noc(=O)n2C)n1` [Example 51] the LogP [1] was 2.32^[a] and the “% efficacy” value (Phytophthora infestans) was 90%.

For `CCCCCOC(=O)Nc1cccc(CON=C(c2ncccn2)c2noc(=O)n2C)n1` [Example 52], the LogP [1] was 3.06^[a] and the “% efficacy” value (Phytophthora infestans) was 88%.

With `CCCCOC(=O)Nc1cccc(CON=C(c2ncccn2)c2noc(=O)n2C)n1` [Example 53] the LogP [1] was 2.68^[a] and the “% efficacy” value (Phytophthora infestans) was 85%.

In the case of `C#CCCOC(=O)Nc1cccc(CON=C(c2ncccn2)c2noc(=O)n2C)n1` [Example 54], the LogP [1] is reported as 2.08^[a].

In the case of `CCCCCOC(=O)Nc1cccc(CON=C(c2cccnc2)c2nc(=O)on2C)n1` [Example 55], the LogP [1] is reported as 2.84^[a] and the “% efficacy” value (Phytophthora infestans) is reported as 92%.

In the case of `CCCCC(=O)Nc1cccc(CON=C(c2ncccn2)c2nc(=O)on2C)n1` [Example 58], the LogP [1] is reported as 1.84^[a].

In the case of `CCCCC(=O)Nc1cccc(CON=C(c2ncccn2)c2noc(=O)n2C)n1` [Example 61], the LogP [1] is reported as 2.23^[a].

In the case of `CCCCC(=O)Nc1cccc(CON=C(c2cccnc2)c2nc(=O)on2C)n1` [Example 62], the LogP [1] is reported as 2.04^[a].

For `Cn1c(C(=NOCc2csc(NC(=O)c3ccc(F)cc3)n2)c2ccsc2)noc1=O` [Example 64], the LogP [1] was 3.26^[a].

In the case of `Cn1c(C(=NOCc2csc(N(COCC[Si](C)(C)C)C(=O)OC(C)(C)C)n2)c2ccsc2)noc1=O` [Example 65], the LogP [1] is reported as 5.86^[a].

With `CC(C)(C)OC(=O)N(COCC[Si](C)(C)C)c1nc(CON=C(c2ccsc2)c2noc(=O)[nH]2)cs1` [Example 66] the LogP [1] was 5.45^[a].

In the case of `CCCCCOC(=O)Nc1nc(CON=C(c2ccsc2)c2noc(=O)n2C)cs1` [Example 68], the LogP [1] is reported as 3.81^[a].

In the case of `Cn1c(C(=NOCc2csc(N(COCC[Si](C)(C)C)C(=O)OC(C)(C)C)n2)c2cccs2)noc1=O` [Example 70], the LogP [1] is reported as 5.84^[a].

In the case of `CC(C)(C)OC(=O)N(COCC[Si](C)(C)C)c1nc(CON=C(c2noc(=O)[nH]2)c2cccs2)cs1` [Example 72], the LogP [1] is reported as 5.45^[a].

With `CCCCC(=O)Nc1cccc(CON=C(c2ccncc2)c2nc(=O)on2C)n1` [Example 75] the LogP [1] was 1.88^[a].

For `C#CCCOC(=O)Nc1cccc(CON=C(c2ccncc2)c2nc(=O)on2C)n1` [Example 76], the LogP [1] was 1.74^[a].

With `CCCCCC(=O)Nc1cccc(CON=C(c2ccncc2)c2nc(=O)on2C)n1` [Example 77] the LogP [1] was 2.23^[a].

For `CCCCCOC(=O)Nc1cccc(CON=C(c2ccncc2)c2nc(=O)on2C)n1` [Example 78], the LogP [1] was 2.68^[a].

With `CCCCOC(=O)Nc1cccc(CON=C(c2ccncc2)c2nc(=O)on2C)n1` [Example 79] the LogP [1] was 2.32^[a].

For `Cn1c(C(=NOCc2csc(N)n2)c2cccs2)noc1=O` [Example 81], the LogP [1] was 1.38^[a].

With `Cn1c(C(=NOCc2csc(NC(=O)c3ccc(F)cc3)n2)c2cccs2)noc1=O` [Example 85] the LogP [1] was 3.20^[a].

In the case of `Cn1c(C(=NOCc2csc(NC(=O)COc3ccccc3)n2)c2cccs2)noc1=O` [Example 86], the LogP [1] is reported as 3.18^[a].

With `CC(C)(C)OC(=O)Nc1nc(CON=C(C#N)c2ccsc2)cs1` [Example IV-01] the LogP [1] was 3.62^[a].

With `CC(C)(C)OC(=O)Nc1cccc(CON=C(C#N)c2ncccn2)n1` [Example IV-03] the LogP [1] was 2.82^[a].

With `CC(C)(C)OC(=O)Nc1cccc(CON=C(C#N)c2ccncc2)n1` [Example IV-04] the LogP [1] was 3.05^[a].

With `CC(C)(C)OC(=O)Nc1nc(CON=C(C#N)c2cccs2)cs1` [Example IV-05] the LogP [1] was 3.65^[a].

In the case of `CC(C)(C)OC(=O)N(COCC[Si](C)(C)C)c1nc(CON=C(C#N)c2cccs2)cs1` [Example IV-06], the LogP [1] is reported as 6.35^[a].

In the case of `CCOC(=O)c1nc(CON=C(C#N)c2ccsc2)cs1` [Example IV-08], the LogP [1] is reported as 3.15^[a].

In the case of `Cc1nc(CON=C(C#N)c2ccsc2)cs1` [Example IV-09], the LogP [1] is reported as 1.45^[a].

With `N#CC(=NOCc1csc(NC(=O)c2ccc(F)cc2)n1)c1ccsc1` [Example IV-10] the LogP [1] was 3.51^[a].

For `CC(C)(C)OC(=O)N(C(=O)OC(C)(C)C)c1nc(CON=C(C#N)c2ccsc2)cs1` [Example IV-11], the LogP [1] was 4.90^[a].

In the case of `CC(C)(C)OC(=O)Nc1cccc(CON=C(C(N)=NO)c2ccccn2)n1` [Example V-01], the LogP [1] is reported as 1.76^[a].

For `CC(C)(C)OC(=O)Nc1nc(CON=C(C(N)=NO)c2ccsc2)cs1` [Example V-02], the LogP [1] was 2.17^[a].

In the case of `CC(C)(C)OC(=O)N(COCC[Si](C)(C)C)c1nc(CON=C(C(N)=NO)c2cccs2)cs1` [Example V-04], the LogP [1] is reported as 4.60^[a].

For `CCOC(=O)c1nc(CON=C(C(N)=NO)c2ccsc2)cs1` [Example V-05], the LogP [1] was 1.70^[a].

In the case of `CC(C)(C)OC(=O)Nc1cccc(CON=C(C(N)=NO)c2ccncc2)n1` [Example V-06], the LogP [1] is reported as 1.53^[a].

For `CC(C)(C)OC(=O)Nc1cccc(CON=C(C(N)=NO)c2ncccn2)n1` [Example V-07], the LogP [1] was 1.58 + 1.87^[a].

With `CC(C)(C)OC(=O)Nc1nc(CON=C(C(N)=NO)c2cccs2)cs1` [Example V-08] the LogP [1] was 2.26^[a].
